In patent US20250057961A1, “BLOOD-BRAIN BARRIER PENETRATING DRUG DELIVERY SYSTEM USING SIALYLLACTOSE” (GENECHEM INC., priority 2021, published 2025):
Entries after “also recorded” stand apart in the source; their conditions may differ. Where two headings read alike, the source gives them in different places.

Tests used:
[1] = Blood-brain barrier penetration experiment: brain fluorescence of Cy5.5-attached substances (IVIS spectrum CT, in vivo and extracted brain); conditions: for brain penetration (fluorescence signal in the brain): Cy5.5-attached substance, into the veins, up to 24 hours, FIGS. 1-3
Description: (§1) First, the fluorescent substance Cy5.5 (Genechem, Cat no. GCCD0064) was attached to each of lactose, 2,3-sialyllactose (GCB100) and 2,6-sialyllactose (GCB200), and each substance was dissolved and diluted in 10% DMSO, thus preparing samples (final DMSO concentration is approximately 2% of the total volume). After administering each sample at 1 mol/kg into the veins of BALB/c nude mice, the fluorescence signals in the brains of the nude mice were measured at different time points (1, 2, 4, 6, 8, and 24 hours) using the IVIS spectrum CT (Perkin Elmer).
(§2) Next, the fluorescent substance Cy5.5 (Genechem, Cat no. GCCD0064) was attached to each of sialic acid, 2,3-sialyllactose (GCB100) and 2,6-sialyllactose (GCB200), and each substance was dissolved and diluted in 10% DMSO, thus preparing samples (final DMSO concentration is approximately 2% of the total volume). After administering each sample at 1 mol/kg into the veins of BALB/c nude mice, the fluorescence signals in the brains of the nude mice were measured at different time points (10 min, 30 min, 1, 2, 4, 6, 8, and 24 hours) using the IVIS spectrum CT (Perkin Elmer). 24 hours after administration, the nude mice were perfused with saline solution, the brains were extracted, and fluorescence present in the brains was measured.
(§3) The experiment was conducted in the same manner as the above-described experiment on blood-brain barrier penetration of sialyllactose.
(§4) Here, Cy5.5 alone and gemcitabine attached to only Cy5.5 were used as controls. First, each material was dissolved and diluted in 10% DMSO, thus preparing samples (final DMSO concentration is approximately 2% of the total volume). After administering each sample at 1 mol/kg into the veins of BALB/c nude mice, the fluorescence signals in the brains of the nude mice were measured at different time points (10 min, 30 min, 1, 2, 4, 6, 8, and 24 hours) using the IVIS spectrum CT (Perkin Elmer). 24 hours after administration, the nude mice were perfused with saline solution, the brains were extracted, and fluorescence present in the brains was measured.

[2] = mouse, in vivo
Description: as §1, §2, §3, §4

[3] = system: U-87MG; experiment: Anticancer efficacy in mouse brain cancer model (luciferase-expressing U-87MG transplanted into brain, optical imaging); type: in vivo; conditions: intravenously twice a week, 8 times for 4 weeks; GCB017 22 mol/kg; days 20, 24, 27; FIG. 13
Description: The brain cancer model was produced by transplanting U-87MG, a brain cancer cell line that expresses luciferase. For transplantation into the brain, each animal was anesthetized by isoflurane injection and fixed on a stereotaxic arm, and the head skin was incised vertically by about 1 cm and the injection site was exposed using a micro drill. The cell line was transferred into a 25-μl Hamilton syringe equipped with a 31-gauge needle, and then the cell line was transplanted at a rate of 1 i/min to an area 1 mm anterior, 2 mm lateral, and 3 mm deep based on bregma. After cell line transplantation, in order to prevent reflux and ensure good absorption, the syringe was maintained for about 10 minutes and separated, and the incision was sutured and disinfected. After confirming that the anesthesia had worn off, the animals were reared normally. Starting 1 week after model production, each of methotrexate and GCB017 was administered intravenously twice a week for a total of 8 times for 4 weeks, and the size of the brain tumor was measured by optical imaging (FIG. 13). […] In combination with the results of Examples 3-2 and 3-3 above, it is believed that the sialyllactose-methotrexate conjugate according to the present invention has an improved BBB penetration ability compared to methotrexate and inhibits tumor formation and growth.

[4] = Brain tissue penetration and substance dissociation (LC-MS/MS of tissue homogenate supernatant); type: in vivo
Description: To examine the distribution and dissociation of sialyllactose-conjugated methotrexate in tissues, GCB017 was administered and the presence of GCB017 and its dissociates (linker-6′SL (L-6′SL) and linker) in the brain and pancreas was checked. Specifically, GCB017 was dissolved and diluted in 10% DMSO, thus preparing a sample (final DMSO concentration was approximately 2% of the total volume). The sample was administered intravenously (IV) at a dose of 80 mg/kg or administered orally (PO) at a dose of 80 mg/kg. Then, at different time points (0, 0.5, 2, and 4 hours), the animals were anesthetized, heart blood was collected, saline solution was perfused, and the brain and pancreas were extracted. Each of the extracted tissues was homogenized in 50 mM Tris-HCl buffer (pH 7.5) at a ratio of 1:5 and centrifuged at 3,000 rpm and 4° C. for 20 minutes, and the supernatant was collected and subjected to mass spectrometry (SCIEX Triple Quad 3500 LC-MS/MS system).
The sample was administered intravenously (IV) at a dose of 80 mg/kg or administered orally (PO) at a dose of 246 mg/kg. Then, at different time points (0, 0.5, 2, and 4 hours), the animals were anesthetized, heart blood was collected, saline solution was perfused, and the brain and pancreas were extracted. Each of the extracted tissues was homogenized in 50 mM Tris-HCl buffer (pH 7.5) at a ratio of 1:5 and centrifuged at 3,000 rpm and 4° C. for 20 minutes, and the supernatant was collected and subjected to mass spectrometry (SCIEX Triple Quad 3500 LC-MS/MS system).

[5] = system: Caspase-3; conditions: BxPC-3, 5-40 nM, 72 hours, FIG. 16B
[6] = system: PARP; conditions: BxPC-3, 5-40 nM, 72 hours, FIG. 16B
[7] = system: BxPC-3; conditions: 5, 10, 20 and 40 nM, 72 hours, FIG. 16A

## 2,3-sialyllactose [GCB100]
[1]
  brain penetration (fluorescence signal in the brain): well delivered to the brain, compared to lactose-bound Cy5.5

## 2,6-sialyllactose [GCB200]
[1]
  brain penetration (fluorescence signal in the brain): well delivered to the brain, compared to lactose-bound Cy5.5; also recorded: the effect of 2,6-sialyllactose was higher than that of 2,3-sialyllactose

## CCN1\C(=C/C=C/C=C/C2=[N+](CCCCCC(=O)O)c3ccc4c(S(=O)(=O)O)cc(S(=O)(=O)O)cc4c3C2(C)C)C(C)(C)c2c1ccc1c(S(=O)(=O)[O-])cc(S(=O)(=O)O)cc21 [Cy5.5, reference compound]
[1]
  brain penetration (fluorescence signal in the brain): barely penetrated the blood-brain barrier
[1]; Cy5.5-attached, controls Cy5.5-dopamine or Cy5.5, FIGS. 5, 6, 8, 9
  brain penetration (fluorescence signal in the brain) of sialyllactose-conjugated dopamine: barely detected in the brain

## CC(=O)N[C@H]1[C@H]([C@H](O)[C@H](O)CO)O[C@@](OC[C@H]2O[C@@H](O[C@H]3[C@H](O)[C@@H](O)[C@H](OCCCCCCNC(=O)CC[C@H](NC(=O)c4ccc(N(C)Cc5cnc6nc(N)nc(N)c6n5)cc4)C(=O)O)O[C@@H]3CO)[C@H](O)[C@@H](O)[C@H]2O)(C(=O)O)C[C@@H]1O [GCB017]
[2]
  fluorescence signal in the brain of sialyllactose-conjugated methotrexate: a strong fluorescence signal appeared
[3]
  size of the brain tumor: tumor formation was delayed and the tumor size was also controlled
[4]; 80 mg/kg IV or 80 mg/kg PO
  presence of GCB017 and its dissociates in brain tissue: detected in the brain tissue not only when GCB017 was administered intravenously but also when administered orally
[4]; brain, iv, 80 mg/kg, GCB017 80 mg/kg IV, 2 h, single animals
  level at 2 h: 52.7 ng/mL
[4]; brain, po, 80 mg/kg, GCB017 80 mg/kg PO, 4 h, single animals
  level at 4 h: 30.3 ng/mL

## CN(Cc1cnc2nc(N)nc(N)c2n1)c1ccc(C(=O)N[C@@H](CCC(=O)O)C(=O)O)cc1 [methotrexate, reference compound]
[1]; Cy5.5-attached, time-dependent and extracted brain at 24 hours, FIGS. 11, 12
  fluorescence signal in the brain of sialyllactose-conjugated methotrexate: almost no fluorescence signal appeared in the brain
[3]
  size of the brain tumor: the tumor size also tended to increase gradually starting from day 20

## CC(=O)N[C@H]1[C@H]([C@H](O)[C@H](O)CO)OC(O)(C(=O)O)C[C@@H]1O (stereo partly drawn) [sialic acid, reference compound]
[2]
  brain penetration (fluorescence signal in the brain): brain penetration remained at a similar level

## gemcitabine-succinate-aminohexyl-6′SL [GCB034]
[5]
  increase in Caspase-3 cleavage: significant in a concentration-dependent manner
[6]
  decrease in the pro-form of PARP: significant in a concentration-dependent manner
[7]
  cell viability (anticancer effect): induce cancer cell death at all treatment concentrations, but also exhibited a higher anticancer effect than gemcitabine
